Assays:
[1] = Non-competitive allosteric inhibition of PTP1B (unknown origin) transformed in Escherichia coli BL21; set-up: species or system Homo sapiens
[2] = Covalent allosteric inhibition of full length AKT (unknown origin); set-up: species or system Homo sapiens
[3] = target: T1, Tyrosine-protein phosphatase non-receptor type 1 (Homo sapiens, UniProt P18031); experiment: Inhibition of 6xHis-tagged human PTP1B catalytic domain using pNPP as substrate by […] based assay
T1 sequence (P18031 whole entry): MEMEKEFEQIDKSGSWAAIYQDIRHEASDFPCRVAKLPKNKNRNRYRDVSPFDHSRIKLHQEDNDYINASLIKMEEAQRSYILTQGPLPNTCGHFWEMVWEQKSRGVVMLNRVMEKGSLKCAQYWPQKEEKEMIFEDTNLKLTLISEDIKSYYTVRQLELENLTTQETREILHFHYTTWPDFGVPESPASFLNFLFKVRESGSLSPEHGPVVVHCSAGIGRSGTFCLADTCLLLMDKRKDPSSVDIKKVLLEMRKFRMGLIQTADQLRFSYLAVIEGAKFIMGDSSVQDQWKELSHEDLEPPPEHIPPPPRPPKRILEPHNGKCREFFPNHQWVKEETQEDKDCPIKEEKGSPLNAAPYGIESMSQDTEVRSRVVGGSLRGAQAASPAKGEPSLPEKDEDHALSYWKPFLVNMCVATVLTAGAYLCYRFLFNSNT

[4] = target: T2, Tyrosine-protein phosphatase non-receptor type 11 (Homo sapiens, UniProt Q06124); experiment: Binding affinity to SHP2 (unknown origin) assessed as inhibition constant
T2 sequence (Q06124 whole entry): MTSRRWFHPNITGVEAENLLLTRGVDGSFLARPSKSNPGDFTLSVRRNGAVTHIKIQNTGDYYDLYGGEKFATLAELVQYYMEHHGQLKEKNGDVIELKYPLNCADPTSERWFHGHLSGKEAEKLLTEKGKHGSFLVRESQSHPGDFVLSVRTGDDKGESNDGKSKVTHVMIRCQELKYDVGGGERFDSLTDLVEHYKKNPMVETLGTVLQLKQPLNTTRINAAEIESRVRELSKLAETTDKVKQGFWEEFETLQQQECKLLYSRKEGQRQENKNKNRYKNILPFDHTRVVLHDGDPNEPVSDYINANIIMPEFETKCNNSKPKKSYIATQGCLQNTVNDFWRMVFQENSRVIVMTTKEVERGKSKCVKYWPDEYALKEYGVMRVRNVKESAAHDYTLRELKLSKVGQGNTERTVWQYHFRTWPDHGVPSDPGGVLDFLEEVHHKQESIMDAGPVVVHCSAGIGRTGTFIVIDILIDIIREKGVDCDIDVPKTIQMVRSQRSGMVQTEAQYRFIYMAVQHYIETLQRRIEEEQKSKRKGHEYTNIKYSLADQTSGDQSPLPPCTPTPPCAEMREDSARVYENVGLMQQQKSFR

CN(C)CCSSCC(=O)Nc1cc(-c2ccc(F)cc2F)ccc1O
Ki [1]: 7.1 µM

C=CC(=O)Nc1cccc(C(=O)NC2CCN(Cc3ccc(-c4nc5cc[nH]c(=O)c5cc4-c4ccccc4)cc3)CC2)c1
Ki [2]: 0.0069 µM

C=CC(=O)Nc1ccnc2ccccc12
IC50 [3]: 35 µM
Ki [4]: 279 µM

— ChEMBL document CHEMBL6121070, “Covalent-Allosteric Inhibitors: Do We Get the Best of Both Worlds?” (J Med Chem, 2025)
